A word on the mortality: it is the percentage killed. For orientation: LD50 means the dose expected to kill half of the subjects tested.

Where two headings read alike, the source gives them in different places.

For one series, the system named is anaesthetized dog. As to the kind of experiment: Antiangorous activity on anaesthetized dog: consumption of oxygen in the left ventricule and cardiac effort (KATZ's index). The format is in vivo. To be noted: for inhibition in vivo at 1.25 mg/kg / inhibition in vivo at 0.12 mg/kg / inhibition in vivo at 0.625 mg/kg / inhibition in vivo at 2.5 mg/kg / inhibition in vivo at 5 mg/kg / inhibition in vivo at 2.2 mg/kg / inhibition in vivo at […]: Canis lupus familiaris, iv; for inhibition in vivo at […]: 0.15 mg/kg i.v. slow perfusion. How it is done:
The antiangorous activity was tested on an anaesthetized dog (sodium pentobarbital 30 mg/kg/i.v.).
The consumption of oxygen in the left ventricule was estimated by the product of the coronary venous flow and the coronary arteriovenous difference in oxygen (% volume).
The coronary venous flow was measured at the coronary venous sinus by means of a modified Morawitz cannula, introduced under radioscopic control.
The cardiac effort was estimated according to KATZ's index, by the product of the average arterial pressure and the cardiac frequency.
The cardiac frequency was estimated from the electrocardiogram recorded with D2 derivation.
It should be noted that the compounds tested were injected intravenously with slow perfusion.

The nature of the next series: in vivo. To be noted: for mortality: read-out: Toxicity (Mortality); for LD50: read-out: Toxicity: LD50. The text has this:
*LD50 or percentage of mortality which is given between brackets

Where [1] appears, read: 0.625 mg/kg i.v. slow perfusion.
Setting [2] is: 0.625 mg/kg i.v. slow perfusion, read-out: Diminution in consumption of O2.
Setting [3] is: 0.625 mg/kg i.v. slow perfusion, read-out: Diminution in the cardiac effort (IK).
[4] abbreviates: 2.5 mg/kg i.v. slow perfusion, read-out: Diminution in consumption of O2.
[5] abbreviates: 2.5 mg/kg i.v. slow perfusion, read-out: Diminution in the cardiac effort (IK).

Take `COc1cc(/C=C/C(=O)N2CCN(CC(O)COc3ccc(C(=O)NC4CCCCC4)c4c3OCCO4)CC2)cc(OC)c1OC` (centres unmarked) [770 831]: in the series with anaesthetized dog (1.25 mg/kg i.v. slow perfusion), the “Diminution in consumption of O2: in time” value came to 30 min and the “Diminution in the cardiac effort (IK): in time” value (from here on “Diminution in the cardiac effort”) turned out to be 45 min. The inhibition in vivo at 1.25 mg/kg with anaesthetized dog (1.25 mg/kg i.v. slow perfusion, read-out: Diminution in consumption of O2) came to 45%. For the same compound, the inhibition in vivo at 1.25 mg/kg with anaesthetized dog (1.25 mg/kg i.v. slow perfusion, read-out: Diminution in the cardiac effort (IK)) came out at 27%. Further, the mortality in the series “in vivo” (po, p.o.: 2000 mg/kg) came out at 0%.

Regarding `COc1cc(C(C)=O)ccc1OCC(O)CN1CCN(C(=O)/C=C/c2cc(OC)c(OC)c(OC)c2)CC1` (centres unmarked) [770 073], in the series with anaesthetized dog (0.12 mg/kg i.v. slow perfusion), the “Diminution in consumption of O2: in time” value is on record as 30 min and the “Diminution in the cardiac effort” value is 15 min. In addition, the inhibition in vivo at 0.12 mg/kg with anaesthetized dog (0.12 mg/kg i.v. slow perfusion, read-out: Diminution in consumption of O2) was found to be 24%. The inhibition in vivo at 0.12 mg/kg with anaesthetized dog (0.12 mg/kg i.v. slow perfusion, read-out: Diminution in the cardiac effort (IK)) is 16%. Also, the median lethal dose (LD50) in “in vivo” (iv) amounted to 158 mg/kg.

With `CCCC(=O)Nc1ccc(OCC(O)CN2CCN(C(=O)/C=C/c3cc(OC)c(OC)c(OC)c3)CC2)c2c1OCCO2` (centres unmarked) [770 610], in the series with anaesthetized dog (setting [1]), the “Diminution in consumption of O2: in time” value is recorded as 60 min and the “Diminution in the cardiac effort” value amounted to 45 min. The inhibition in vivo at 0.625 mg/kg in the series with anaesthetized dog (setting [2]) came to 56%. Also, in the series with anaesthetized dog (setting [3]), the inhibition in vivo at 0.625 mg/kg is 34%. The mortality in the series “in vivo” (po, p.o.: 2000 mg/kg) turned out to be 0%.

In the case of `CCOC(=O)c1ccc(OCC(O)CN2CCN(C(=O)/C=C/c3cc(OC)c(OC)c(OC)c3)CC2)cc1` (centres unmarked) [760 382], in the series on anaesthetized dog (2.5 mg/kg i.v. slow perfusion), the “Diminution in consumption of O2: in time” value stood at 30 min. The “Diminution in the cardiac effort” value in the series with anaesthetized dog (2.5 mg/kg i.v. slow perfusion) stood at 30 min. Also, the inhibition in vivo at 2.5 mg/kg with anaesthetized dog (setting [4]) is 40%; in the series with anaesthetized dog (setting [5]) it was 24%. Besides, the LD50 in the series “in vivo” (iv) was 260 mg/kg.

As to `COc1cc(/C=C/C(=O)N2CCN(CC(O)COc3ccc(C(C)=O)c4c3OCCO4)CC2)cc(OC)c1OC(C)C` (centres unmarked) [770 727], in the series with anaesthetized dog (2.5 mg/kg i.v. slow perfusion), the “Diminution in consumption of O2: in time” value is reported as 15 min and the “Diminution in the cardiac effort” value worked out at 30 min. Further, the inhibition in vivo at 2.5 mg/kg in the series with anaesthetized dog (setting [4]) worked out at 57%. Moreover, in the series on anaesthetized dog (setting [5]), the inhibition in vivo at 2.5 mg/kg was 27%. For the same compound, in the series “in vivo” (iv), the 50% lethal dose (LD50) was 130 mg/kg.

For the compound `COc1cc(/C=C/C(=O)N2CCN(CC(O)CSc3ccc(C)cc3)CC2)cc(OC)c1OC` (centres unmarked) [770 059], in the series with anaesthetized dog (5 mg/kg i.v. slow perfusion), the “Diminution in consumption of O2: in time” value turned out to be 15 min. For the same compound, in the series with anaesthetized dog (5 mg/kg i.v. slow perfusion), the “Diminution in the cardiac effort” value was 15 min. In addition, the inhibition in vivo at 5 mg/kg in the series on anaesthetized dog (5 mg/kg i.v. slow perfusion, read-out: Diminution in consumption of O2) is 64%; in the series with anaesthetized dog (5 mg/kg i.v. slow perfusion, read-out: Diminution in the cardiac effort (IK)), 12%. Moreover, in the series “in vivo” (iv), the median lethal dose (LD50) amounted to 91 mg/kg.

For the compound `COc1cc(/C=C/C(=O)N2CCN(CC(O)COc3ccc(C(C)=O)cc3)CC2)cc(OC)c1OC` (centres unmarked) [760 385], in the series on anaesthetized dog (2.2 mg/kg i.v. slow perfusion), the “Diminution in consumption of O2: in time” value is 15 min and the “Diminution in the cardiac effort” value came out at 15 min. For the same compound, the inhibition in vivo at 2.2 mg/kg in the series with anaesthetized dog (2.2 mg/kg i.v. slow perfusion, read-out: Diminution in consumption of O2) was 65%. Moreover, the inhibition in vivo at 2.2 mg/kg with anaesthetized dog (2.2 mg/kg i.v. slow perfusion, read-out: Diminution in the cardiac effort (IK)) stood at 16%. The mortality in “in vivo” (iv, 351 mg/kg i.v.) was 10%.

Take `COc1cc(/C=C/C(=O)N2CCN(CC(O)COc3ccc(NC(C)=O)cc3)CC2)cc(OC)c1OC` (centres unmarked) [760 542]: in the series on anaesthetized dog (2.5 mg/kg i.v. slow perfusion), the “Diminution in consumption of O2: in time” value worked out at 45 min and the “Diminution in the cardiac effort” value amounted to 50 min. The inhibition in vivo at 2.5 mg/kg in the series on anaesthetized dog (setting [4]) turned out to be 64%. In the series on anaesthetized dog (setting [5]), the inhibition in vivo at 2.5 mg/kg was found to be 32%. The mortality in “in vivo” (iv, 400 mg/kg i.v.) turned out to be 0%.

Turning to `COc1cc(/C=C/C(=O)N2CCN(CC(O)COc3ccc(CC(N)=O)c4c3OCCO4)CC2)cc(OC)c1OC` (centres unmarked) [770 386], in the series on anaesthetized dog (setting [1]), the “Diminution in consumption of O2: in time” value was 30 min and the “Diminution in the cardiac effort” value was 30 min. The inhibition in vivo at 0.625 mg/kg in the series with anaesthetized dog (setting [2]) is 41%. For the same compound, the inhibition in vivo at 0.625 mg/kg in the series on anaesthetized dog (setting [3]) is 20%. Moreover, the mortality in the series “in vivo” (iv, 400 mg/kg i.v.) turned out to be 20%.

As to `COc1cc(/C=C/C(=O)N2CCN(CC(O)COc3ccc([N+](=O)[O-])cc3Cl)CC2)cc(OC)c1OC` (centres unmarked) [771 124], in the series on anaesthetized dog (2.5 mg/kg i.v. slow perfusion), the “Diminution in consumption of O2: in time” value stood at 15 min and the “Diminution in the cardiac effort” value is 23 min. In the series on anaesthetized dog (setting [4]), the inhibition in vivo at 2.5 mg/kg is 34%. Further, the inhibition in vivo at 2.5 mg/kg in the series on anaesthetized dog (setting [5]) worked out at 13%. Also, the median lethal dose (LD50) in “in vivo” (iv) stood at 270 mg/kg.

Take `COc1cc(/C=C/C(=O)N2CCN(CC(O)COc3ccc(C(=O)Nc4ccccc4)c4c3OCCO4)CC2)cc(OC)c1OC` (centres unmarked) [770 848]: the inhibition in vivo at […] in the series with anaesthetized dog (read-out: Diminution in consumption of O2) was found to be 41%; in the series with anaesthetized dog (read-out: Diminution in the cardiac effort (IK)) it was 5%. Also, the mortality in “in vivo” (iv, 400 mg/kg i.v.) was 10%.

The values are drawn from patent US4178442A, “Novel cinnamoyles piperazines and homopiperazines, the method of preparing them and their application in therapeutics” (Delalande S. A., priority 1977, dated 1979).
